Experimental findings from BindingDB's records for doi:10.1016/j.bmcl.2006.05.062 (AstraZeneca, 2006) are described below.

Structures are written as SMILES. pIC50: −log10 of the molar value.

This test can be described thus: Inhibition of COX1-mediated platelet aggregation.

A word on the pIC50: it is −log10 of the IC50, conventionally taken in molar units. Read a low pIC50 as a large IC50. As for `COc1ccc2c(c1)c(CC(=O)O)c(C)n2-c1ccnc2cc(Cl)ccc12` [2-(1-(7-chloroquinolin-4-yl)-5-methoxy-2-methyl-1H-indol-3-yl)acetic acid], the pIC50 was 7.40.
